≈ marks a conversion by molar mass, not a printed value.
Assays:
[1] = system: Streptococcus pyogenes UC ® 152; test: in vitro antibacterial activity, Minimum Inhibitory Concentration, Streptococcus pyogenes; conditions: for MIC: Streptococcus pyogenes, UC152, read-out: Minimum Inhibitory Concentration; for Minimum Inhibitory Concentration: in vitro, Streptococcus pyogenes UC ® 152
[2] = system: Staphylococcus aureus UC ® 9213; test: in vitro antibacterial activity, Minimum Inhibitory Concentration, Staphylococcus aureus; conditions: for MIC: Staphylococcus aureus, UC9213, read-out: Minimum Inhibitory Concentration; for Minimum Inhibitory Concentration: in vitro, Staphylococcus aureus UC ® 9213

Compound	MIC [1] [µg/mL]	MIC [2] [µg/mL]	Minimum Inhibitory Concentration [1] [µg/mL]	Minimum Inhibitory Concentration [2] [µg/mL]
COCCOc1ccc(-c2ccc(N3CC(CNC(C)=O)OC3=O)cc2)ccc1=O (racemic) [Compound 35, (±)-N-[[3-[4-[4-(2-methoxyethoxy)-5-oxo-1,3,6cycloheptatrien1-yl]phenyl)-2-oxo-5-oxazolidinyl]methyl]-acetamide]	1 (≈ 2.42 µM)	4 (≈ 9.7 µM)	–	–
COc1ccc(-c2ccc(N3C[C@H](CNC(C)=O)OC3=O)cc2F)ccc1=O [Compound 19]	0.25 (≈ 0.647 µM)	1 (≈ 2.59 µM)	–	–
CC(=O)NC[C@H]1CN(c2ccc(-c3ccc(N4CCOCC4)c(=O)cc3)cc2)C(=O)O1 [Compound 25, (S)-N-[[3-[4[4-(4-morpholino)-5-oxo-1,3,6-cycloheptatrien-1-yl]phenyl]-2-oxo-5-oxazolidinyl]methyl]-acetamide]	0.5 (≈ 1.18 µM)	2 (≈ 4.72 µM)	–	–
C#CCNc1ccc(-c2ccc(N3C[C@H](CNC(C)=O)OC3=O)cc2F)ccc1=O [Compound 34]	–	–	0.25	1
CC(=O)NC[C@H]1CN(c2ccc(-c3ccc(N4CCOCC4)c(=O)cc3)c(F)c2)C(=O)O1 [Compound 36, (S)-N-[[3-[3-fluoro4[(4-morpholino)-5-oxo-1,3,6cycloheptatrien-1-yl]phenyl]-2-oxo-5oxazolidinyl]methyl]-acetamide]	0.5 (≈ 1.13 µM)	2 (≈ 4.53 µM)	–	–
(±)-N-[[3-[4-[4-(3-amino-1-yl]phenyl]-2-oxo-5-oxazolidinyl]methyl]-acetamide [Compound 23]	–	–	0.25	16

— patent US5523403A, “Tropone-substituted phenyloxazolidinone antibacterial agents” (The Upjohn Company, priority 1995, dated 1996)
